Reference: US10856563B2, “N-acyl-amino acid derivatives for improvement of the flavor profile of edible compositions” (Givaudan S.A., priority 2012, dated 2020)

How the values were obtained:
[1] = Test on Tang (high intensity sweetener HIS masking), evaluation by expert tasters; details: versus base
Procedure: In an orange flavoured Tang powdered soft drink (market product) sweetened with sucrose plus high intensity sweetener (aspartame and acesulfame-K) and containing citric acid, C18:2-gaba and C18:2-pro were tested.
All samples were evaluated by expert tasters. Tasters were asked to describe the samples focusing on authentic taste, masking off notes of high intensity sweetener, mouthfeel & body, enhancement, richness, juiciness, long lastingness, salivation, sweetness
Base is Orange flavoured Tang
Base: sweet, orange, licorice, and lingering high intensity sweetener off-notes, bitter, thin

[2] = Test on soy milk (soy protein masking), evaluation by expert tasters; details: 2 ppm in soy milk (1.8% fat), 5% sucrose, milk flavour 0.1%
Procedure: In a soy milk (1.8% fat) sweetened with 5% sucrose by weight, flavoured with a proprietary milk flavour at a dosage of 0.1%, C18:2-gaba was added at 2 ppm
Samples were evaluated by expert tasters. Tasters were asked to describe the samples focusing on authentic taste, masking of soy protein off notes, mouthfeel, fullness, salivation, sweetness, richness, long lastingness and fattiness.
Soy milk, 5% sucrose, milk flavor @ 0.1%: sweet, dry, green, soy bean taste

[3] = Test on liquid margarine (KCL masking), evaluation by expert tasters; details: 2 ppm in Blueband liquid margarine, 0.8% KCL, proprietary masking flavour 0.01%
Procedure: In Blueband liquid margarine (market product) with added KCL 0.8% and a proprietary masking flavour @ 0.01% 18:2 gaba was added at 2 ppm.
Samples were evaluated by expert tasters. Tasters were asked to describe the samples focusing on authentic taste, masking of KCL off notes, mouthfeel, saltiness, fullness, salivation, long lastingness and fattiness.
Base is Blueband, 0.8% KCL, proprietary masking @ 0.01%
Base: metallic, buttery, bitter and soapy

| SMILES | masking off notes of high intensity sweetener ([1]; 1 ppm in orange flavoured Tang (sucrose, aspartame, acesulfame-K, citric acid)) | taste description (enhancement, juiciness, authentic taste) ([1]; 1 ppm in orange flavoured Tang) | masking off notes of high intensity sweetener ([1]; 0.5 ppm in orange flavoured Tang (sucrose, aspartame, acesulfame-K, citric acid)) | taste description (enhancement, juiciness, mouthfeel) ([1]; 0.5 ppm in orange flavoured Tang) | masking of soy protein off notes [2] | taste description (richness, mouthfeel, fattiness) [2] | authentic taste [3] | masking of KCL off notes [3] | saltiness and mouthfeel [3] |
| --- | --- | --- | --- | --- | --- | --- | --- | --- | --- |
| CCCCC/C=C\C/C=C\CCCCCCCC(=O)N1CCC[C@H]1C(=O)O [C18:2-Pro, N-linoleoyl-Pro] | the off-notes of the high intensity sweetener were suppressed | the fresh, sweet juicy orange notes are enhanced, characteristic of authentic fresh orange fruit |  |  |  |  |  |  |  |
| CCCCC/C=C\C/C=C\CCCCCCCC(=O)NCCCC(=O)O [C18:2-gaba] |  |  | the off-notes of the high intensity sweetener were suppressed | the sweet juicy orange notes and mouthfeel are enhanced | good reduction of the undesirable soy bean off-taste | clean, rich, creamy and milky | more authentic butter | less metallic and bitter notes | more saltiness, more mouthfeel |
